{"source": "patent US9730445B2", "about": "“Herbicidal compositions comprising 4-amino-3-chloro-5-fluoro-6-(4-chloro-2-fluoro-3-methoxyphenyl) pyridine-2-carboxylic acid or a derivative thereof and fungicides” (DOW AGROSCIENCES LLC, priority 2013, dated 2017)", "assay_in_all_cases": "Postemergence foliar-applied weed control, direct-seeded rice (greenhouse)", "key": {"[1]": {"tested_on": "ECHOR", "assay_type": "in vivo, Echinochloa oryzoides (Ard.) Fritsch (early watergrass)", "conditions": "r78-80 ester 8/16/32 g ae/ha alone, r81-83 difenoconazole 50/100/200 g ai/ha alone, r84-92 ester 8/16/32 at each of 50, 100, 200", "description": "(§1) Seeds or nutlets of the desired test plant species were planted in a soil matrix prepared by mixing aloam or sandy loam soil (e.g., 28.6 percent silt, 18.8 percent clay, and 52.6 percent sand, with a pH of about 5.8 and an organic matter content of about 1.8 percent) and calcareous grit in an 80 to 20 ratio. The soil matrix was contained in plastic pots with a volume of 1 quart and a surface area of 83.6 square centimeters (cm^2). […] The plants were grown for 8-22 days in a greenhouse with an approximate 14 hour (h) photoperiod which was maintained at about 29° C. during the day and 26° C. during the night. Nutrients (Peters Excel® 15-5-15 5-Ca 2-Mg and iron chelate) were applied in the irrigation solution as needed and water was added on a regular basis. Supplemental lighting was provided with overhead metal halide 1000-Watt lamps as necessary. The plants were employed for testing when they reached the first through fourth true leaf stage.\n(§2) Treatments consisted of the acid or esters of 4-amino-3-chloro-5-fluoro-6-(4-chloro-2-fluoro-3-methoxy-phenyl)pyridine-2-carboxylic acid (Compound A), each formulated as an SC (suspension concentrate), and various fungicidal components alone and in combination. Forms of compound A were applied on an acid equivalent basis.\nFor treatments comprised of formulated compounds, measured amounts of compounds were placed individually in 25 mL glass vials and diluted in a volume of 1.25% volume per volume (v/v) Agri-Dex® crop oil concentrate to obtain 12× stock solutions. […]\n(§3) The treated plants and control plants were placed in a greenhouse as described above and watered by sub-irrigation to prevent wash-off of the test compounds. After approximately 3 weeks, the condition of the test plants as compared with that of the untreated plants was determined visually and scored on a scale of 0 to 100 percent where 0 corresponds to no injury or growth inhibition and 100 corresponds to complete kill. […]"}, "[2]": {"tested_on": "CYPES", "assay_type": "in vivo, Cyperus esculentus L. (yellow nutsedge)", "description": "as §1, §2\n(§4) For treatments comprised of formulated compounds, measured amounts of compounds were placed individually in 25 mL glass vials and diluted in a volume of 1.25% volume per volume (v/v) Agri-Dex® crop oil concentrate to obtain 12× stock solutions. […] Application solutions were prepared by adding an appropriate amount of each stock solution (e.g., 1 mL) and diluted to the appropriate final concentrations with the addition of […] of an aqueous mixture of 1.25% (v/v) crop oil concentrate so that the final spray solutions contained 1.25+/−0.05% (v/v) crop oil concentrate.\n(§5) For treatments comprised of technical compounds, weighed amounts can be placed individually in 25 mL glass vials and dissolved in a volume of 97:3 volume per volume (v/v) acetone/dimethyl sulfoxide (DMSO) to obtain 12× stock solutions. […] When technical materials are used, the concentrated stock solutions can be added to the spray solutions so that the final acetone and DMSO concentrations of the application solutions are 16.2% and 0.5%, respectively.\n(§6) As required, additional water and/or 97:3 v/v acetone/DMSO was added to individual application solutions so that the final acetone and DMSO concentrations of the application solutions being compared were 8.1% and 0.25%, respectively\n(§7) All stock solutions and applications solutions were visually inspected for compound compatibility prior to application. Spray solutions were applied to the plant material with an overhead Mandel track sprayer equipped with 8002E nozzles calibrated to deliver 187 L/ha over an application area of 0.503 square meters (m^2) at a spray height of 18 to 20 inches (46 to 50 cm) above average plant canopy height. Control plants were sprayed in the same manner with the solvent blank.\nas §3"}, "[3]": {"tested_on": "LEFCH", "assay_type": "in vivo, Leptochloa chinensis (L.) Nees (Chinese sprangletop)"}, "[4]": {"tested_on": "ECHCO", "assay_type": "in vivo, Echinochloa colonum (L.) LINK (junglerice)", "source_text": "Seeds or nutlets of the desired test plant species were planted in a soil matrix prepared by mixing aloam or sandy loam soil (e.g., 28.6 percent silt, 18.8 percent clay, and 52.6 percent sand, with a pH of about 5.8 and an organic matter content of about 1.8 percent) and calcareous grit in an 80 to 20 ratio. The soil matrix was contained in plastic pots with a volume of 1 quart and a surface area of 83.6 square centimeters (cm^2). When required to ensure good germination and healthy plants, a fungicide treatment and/or other chemical or physical treatment was applied. The plants were grown for 8-22 days in a greenhouse with an approximate 14 hour (h) photoperiod which was maintained at about 29° C. during the day and 26° C. during the night. Nutrients (Peters Excel® 15-5-15 5-Ca 2-Mg and iron chelate) were applied in the irrigation solution as needed and water was added on a regular basis. Supplemental lighting was provided with overhead metal halide 1000-Watt lamps as necessary. The plants were employed for testing when they reached the first through fourth true leaf stage.\nas §2\nTreatment requirements were calculated based upon the rates being tested, the concentration of active ingredient or acid equivalent in the formulation and a 12 milliliter (mL) application volume at a rate of 187 liters per hectare (L/ha).\nas §4, §5, §6, §7, §3"}, "[5]": {"tested_on": "IPOHE", "assay_type": "in vivo, Ipomoea hederacea (L.) Jacq. (ivyleaf morningglory)", "conditions": "r10-12 ester 4.38/8.75/17.5 g ae/ha alone, r13 difenoconazole 200 g ai/ha alone, r14-16 ester 4.38/8.75/17.5 + 200"}, "[6]": {"conditions": "r38-39 ester 8/16 g ae/ha alone, r40 isotianil 380 g ai/ha alone, r41-42 ester 8/16 + 380"}}, "note": "“And” between values parts separate entries of the source, which are not always exact repeats. Equal entries are not always repeated."}
{"smiles": "COc1c(Cl)ccc(-c2nc(C(=O)OCc3ccccc3)c(Cl)c(N)c2F)c1F", "note": "[Compound A Benzyl Ester]", "values": [{"measurement": "Visual Weed Control (%) - 21 DAA ECHOR Obs", "setting": "[1]", "result": "45% and 43% and 70%"}, {"measurement": "Visual Weed Control (%) - 21 DAA CYPES Obs", "setting": "[2]; r26 ester 8 g ae/ha alone, r27-29 phthalide 100/200/300 g ai/ha alone, r30-32 ester 8 + 100/200/300", "result": 10, "unit": "%"}, {"measurement": "Visual Weed Control (%)—21 DAA CYPES Obs", "setting": "[2]; r45 ester 8 g ae/ha alone, r46-48 kasugamycin 17.5/35/70 g ai/ha alone, r49-51 ester 8 + 17.5/35/70", "result": 70, "unit": "%"}, {"measurement": "Visual Weed Control (%) - 19 DAA LEFCH Obs", "setting": "[3]; 19 DAA, r9-11 ester 8/16/32 g ae/ha alone, r12-13 flutolanil 280/560 g ai/ha alone, r14-19 ester 8/16/32 at each of 280, 560", "result": "45% and 50%"}, {"measurement": "Visual Weed Control (%)—21 DAA LEFCH Obs", "setting": "[3]; r9-11 ester 8/16/32 g ae/ha alone, r12-14 kasugamycin 17.5/35/70 g ai/ha alone, r15-23 ester 8/16/32 at each of 17.5, 35, 70", "result": "40% and 65%"}, {"measurement": "Visual Weed Control (%) - 21 DAA LEFCH Obs", "setting": "[3]; r10-11 ester 16/32 g ae/ha alone, r12 mancozeb 840 g ai/ha alone, r13-14 ester 16/32 + 840", "result": "15% and 25%"}, {"measurement": "Visual Weed Control (%) - 21 DAA LEFCH Obs", "setting": "[3]; r10-12 ester 8/16/32 g ae/ha alone, r13-14 isoprothiolane 266/533 g ai/ha alone, r15-20 ester 8/16/32 at each of 266, 533", "result": "50% and 60% and 70%"}, {"measurement": "Visual Weed Control (%)—21 DAA LEFCH Obs", "setting": "[3]; [6]", "result": "25% and 40%"}, {"measurement": "Visual Weed Control (%) - 21 DAA LEFCH Obs", "setting": "[3]; r42-43 ester 16/32 g ae/ha alone, r44-46 difenoconazole 50/100/200 g ai/ha alone, r47-52 ester 16/32 at each of 50, 100, 200", "result": "25% and 43%"}, {"measurement": "Visual Weed Control (%) - 19 DAA ECHCO Obs", "setting": "[4]; r9-11 ester 8/16/32 g ae/ha alone, r12-13 carbendazim 125/250 g ai/ha alone, r14-19 ester 8/16/32 at each of 125, 250", "result": "90% and 95% and 65%"}, {"measurement": "Visual Weed Control (%) - 19 DAA ECHCO Obs", "setting": "[4]; r9-11 ester 8/16/32 g ae/ha alone, r12-13 flutolanil 280/560 g ai/ha alone, r14-19 ester 8/16/32 at each of 280, 560", "result": "90% and 95% and 65%"}, {"measurement": "Visual Weed Control (%)—21 DAA ECHCO Obs", "setting": "[4]; r9-11 ester 8/16/32 g ae/ha alone, r12-14 hexaconazole 25/50/100 g ai/ha alone, r15-23 ester 8/16/32 at each of 25, 50, 100", "result": "65% and 85% and 50%"}, {"measurement": "Visual Weed Control (%)—21 DAA ECHCO Obs", "setting": "[4]; [6]", "result": "50% and 65%"}, {"measurement": "Visual Weed Control (%) - 21 DAA IPOHE Obs", "setting": "[5]", "result": "10% and 20%"}]}
